Reference: ChEMBL document CHEMBL6083198, “Rational design of a high-affinity fluorescent probe for visualizing monitoring the amyloid β clearance effect of anti-Alzheimer's disease drug candidates” (Eur J Med Chem, 2024)
pKd: −log10 of the molar value. Calls of active or inactive are those of the source. No cut-off for these calls is given here.

What was measured:
[1] = molecular target: T1, Amyloid-beta precursor protein (Homo sapiens, UniProt P05067); experiment: Binding affinity to amyloid beta (unknown origin) assessed as dissociation constant
[2] = test system: Caenorhabditis elegans; experiment: Anti-alzheimer activity against heat-induced Caenorhabditis elegans CL4176 AD paralysis model assessed as reduction in amyloid-beta deposition measured after 5 days by ThS staining based fluorescence assay; assay type: functional, organism-based; conditions: dose 100-200 µM, time 5.0 day
[3] = test system: Caenorhabditis elegans; experiment: Anti-alzheimer activity against heat-induced Caenorhabditis elegans CL2006 AD paralysis model assessed as reduction in amyloid-beta deposition at 200 uM measured after 5 days by ThS staining based fluorescence assay; assay type: functional, organism-based; conditions: time 5.0 day
[4] = molecular target: T1, Amyloid-beta precursor protein; experiment: Inhibition of amyloid beta aggregation in amyloid beta-induced human SH-SY5Y cells assessed as reduction in fluorescence intensity at 2 to 20 uM incubated for 24 hrs by Western blot analysis; assay type: cell-based; conditions: dose 2-20 µM
[5] = test system: Caenorhabditis elegans; experiment: Anti-alzheimer activity against heat-induced Caenorhabditis elegans CL4176 AD paralysis model assessed as reduction in amyloid-beta deposition at 100 to 200 uM; assay type: functional, organism-based; conditions: dose 100-200 µM, time 5.0 day
[6] = test system: SH-SY5Y; experiment: Neuroprotective activity against amyloid beta-induced toxicity in human SH-SY5Y cells assessed as reduction in fluorescence intensity at 2 uM incubated for 24 hrs by immunofluorescence staining based analysis; assay type: functional, cell-based
[7] = molecular target: T1, Amyloid-beta precursor protein; experiment: Binding affinity to amyloid beta plaques 1 to 42 (unknown origin) assessed as dissociation constant
[8] = Fluorescence property of compound in aqueous solution assessed as fluorescence quantum yield; assay type: physicochemical; conditions: buffer
[9] = Binding affinity to amyloid beta oligomer (unknown origin) assessed as dissociation constant; parameters: species or system Homo sapiens
[10] = organism: Mus musculus; experiment: Binding affinity to amyloid beta plaques in 12 month old male APP/PS1 transgenic mouse model assessed as signal to noise ratio in brain slice at 100 uM incubated for 30 min by confocal microscopic analysis; assay type: tissue-based; conditions: time 12.0 months
[11] = organism: Homo sapiens; experiment: Binding affinity to phosphoesterase (unknown origin) at 0.05 mg/ml by fluorescence analysis
[12] = test system: U-87 MG; experiment: Cytotoxicity against human U-87 MG cells at 100 uM incubated for 24 hrs; assay type: toxicity, cell-based; conditions: u-87mg atcc
[13] = organism: Homo sapiens; experiment: Binding affinity to pepsin (unknown origin) at 0.05 mg/ml by fluorescence analysis
[14] = organism: Homo sapiens; experiment: Binding affinity to amyloid beta fibril (unknown origin) at 0.025 mg/ml by fluorescence analysis
[15] = organism: Homo sapiens; experiment: (§1) Binding affinity to amyloid beta fibril (unknown origin) assessed as dissociation constant
[16] = as §1; parameters: species or system Homo sapiens
[17] = organism: Homo sapiens; experiment: Binding affinity to lysozyme (unknown origin) at 0.05 mg/ml by fluorescence analysis
[18] = Binding affinity to cellulase (unknown origin) at 0.05 mg/ml by fluorescence analysis
[19] = Fluorescence property of compound in DCM assessed as fluorescence quantum yield; assay type: physicochemical
[20] = organism: Mus musculus; experiment: Binding affinity to amyloid beta plaques in 12 month old male APP/PS1mouse brain cerebral cortex by light-sheet microscopy; assay type: tissue-based; conditions: time 12.0 months
[21] = test system: SH-SY5Y; experiment: Cytotoxicity against human SH-SY5Y cells at 100 uM incubated for 24 hrs; assay type: toxicity, cell-based
[22] = molecular target: Albumin (Bos taurus, UniProt P02769); experiment: Binding affinity to bovine serum albumin (unknown origin) at 0.05 mg/ml by fluorescence analysis; conditions: cattle
[23] = molecular target: Trypsin (Homo sapiens) (UniProt P07477+P07478+P35030); experiment: Binding affinity to trypsin (unknown origin) at 0.05 mg/ml by fluorescence analysis; assay type: protein assay
[24] = organism: Homo sapiens; experiment: Binding affinity to amyloid beta monomer (unknown origin) assessed as dissociation constant
[25] = molecular target: T1, Amyloid-beta precursor protein; experiment: Binding affinity to amyloid beta oligomers (unknown origin) at 5 uM by fluorescence analysis
[26] = Photostability of compound under continuous light irradiation; assay type: physicochemical
[27] = organism: Mus musculus; experiment: Binding affinity to amyloid beta plaques in 12 month old male APP/PS1 transgenic mouse model assessed as colocalization of amyloid beta plaques in brain at 100 uM incubated for 30 min by ab205240 staining based immunohistofluorescence assay; assay type: tissue-based; conditions: time 12.0 months
[28] = Stability of compound at pH 2 to 10 in presence of Amyloid beta; assay type: physicochemical; conditions: buffer
[29] = test system: SH-SY5Y; experiment: Neuroprotective activity against amyloid beta-induced toxicity in human SH-SY5Y cells assessed as reduction in fluorescence intensity at 10 uM incubated for 24 hrs by immunofluorescence staining based analysis; assay type: functional, cell-based

T1 sequence (P05067 whole entry): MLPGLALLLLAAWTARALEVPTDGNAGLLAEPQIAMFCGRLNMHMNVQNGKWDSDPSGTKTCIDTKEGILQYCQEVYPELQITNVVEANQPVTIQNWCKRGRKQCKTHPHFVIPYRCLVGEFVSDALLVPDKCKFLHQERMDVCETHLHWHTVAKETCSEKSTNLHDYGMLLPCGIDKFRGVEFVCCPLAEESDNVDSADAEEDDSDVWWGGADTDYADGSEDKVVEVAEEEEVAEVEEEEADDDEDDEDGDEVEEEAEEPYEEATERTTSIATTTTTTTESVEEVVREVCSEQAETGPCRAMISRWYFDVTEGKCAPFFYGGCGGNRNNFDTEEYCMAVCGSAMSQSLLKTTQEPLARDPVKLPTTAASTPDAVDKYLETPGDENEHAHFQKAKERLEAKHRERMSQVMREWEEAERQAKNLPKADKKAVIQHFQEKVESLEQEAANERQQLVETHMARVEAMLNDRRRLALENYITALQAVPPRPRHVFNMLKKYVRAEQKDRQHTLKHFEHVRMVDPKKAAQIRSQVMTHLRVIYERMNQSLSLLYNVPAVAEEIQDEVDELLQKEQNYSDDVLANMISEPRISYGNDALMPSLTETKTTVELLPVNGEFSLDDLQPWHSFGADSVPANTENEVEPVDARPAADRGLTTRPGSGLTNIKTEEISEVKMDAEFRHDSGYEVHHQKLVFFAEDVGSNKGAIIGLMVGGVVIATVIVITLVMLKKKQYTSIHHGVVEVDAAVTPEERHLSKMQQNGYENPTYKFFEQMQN
Chain of Albumin (P02769 whole entry): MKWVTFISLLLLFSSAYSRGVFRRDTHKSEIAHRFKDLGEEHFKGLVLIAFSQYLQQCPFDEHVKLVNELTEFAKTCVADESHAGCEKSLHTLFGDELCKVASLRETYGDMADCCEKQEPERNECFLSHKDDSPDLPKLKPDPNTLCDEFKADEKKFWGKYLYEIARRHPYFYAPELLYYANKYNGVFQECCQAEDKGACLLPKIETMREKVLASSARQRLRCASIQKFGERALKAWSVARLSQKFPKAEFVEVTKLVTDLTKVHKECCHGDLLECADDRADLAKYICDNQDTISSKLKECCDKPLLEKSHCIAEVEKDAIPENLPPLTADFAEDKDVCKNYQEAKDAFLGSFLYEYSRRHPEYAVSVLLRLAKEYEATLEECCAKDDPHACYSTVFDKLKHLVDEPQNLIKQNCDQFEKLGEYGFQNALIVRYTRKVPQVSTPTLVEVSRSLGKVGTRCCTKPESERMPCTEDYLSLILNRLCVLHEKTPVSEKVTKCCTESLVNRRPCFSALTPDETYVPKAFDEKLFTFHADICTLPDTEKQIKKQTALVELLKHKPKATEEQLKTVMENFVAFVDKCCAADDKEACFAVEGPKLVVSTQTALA

CN(C)c1ccc2cc(/C=C/c3ccc4ccccc4[n+]3C)c(=O)oc2c1
pKd [1]: 7.07

O=c1c(O)c(-c2ccc(O)c(O)c2)oc2cc(O)cc(O)c12
Activity [2]: Dose-dependent-effect

CC(=O)Oc1cccc(C(=O)Nc2ncc(N3CCOCC3)s2)c1
Activity [3]: inactive | Activity [4]: Active | Activity [5]: Active | Activity [2]: Dose-dependent-effect | Activity [6]: Active

CCCN1/C(=C/C=C2\CCCC(C=C(C#N)C#N)=C2Cl)C(C)(C)c2ccccc21
pKd [7]: 7.23

Cc1cc(/C=C/c2ccc(N(C)C)s2)n2c1C(CCCN1CCNc3ccccc31)=C1C=CC=[N+]1[B-]2(F)F
pKd [7]: 7.57

CN(C)c1ccc(-c2ccc3cc(C#N)c(=N)oc3c2)cc1
pKd [1]: 6.26 | Activity [8]: 0.027

CN(C)c1ccc2cc3c(cc2c1)OCC(C=C(C#N)C#N)=C3
pKd [1]: 7.35

CCN(CC)c1ccc(/C=C/C2=[O+][B-](F)(F)OC(/C=C/c3ccc(N(CC)CC)nc3)=C2CCCOc2c(C)cccc2C)cc1
pKd [7]: 6.30

COCCOCCOC(=O)CCN1C(=O)/C(=C/c2ccc3c(c2)Sc2ccccc2N3C)SC1=S
pKd [1]: 7.55

CN(C)c1ccc(-c2ccc(/C=C/C3CC(=C(C#N)C#N)c4ccccc4N3CCCS(=O)(=O)O)s2)cc1 (configuration not stated)
pKd [1]: 6.77

COCCOCCn1c2ccccc2c2cc(CCc3cc[n+](C)c4ccccc34)ccc21
pKd [1]: 7.88

CN(C)c1ccc(/C=C/C=C/C=C(C#N)C#N)s1
pKd [1]: 6.93

CN(C)c1ccc(/C=C/C=C(C#N)/C=C/C(C#N)=C/C=C/C=C/c2ccc(N(C)C)cc2)cc1
pKd [7]: 8.98

CN(C)c1ccc(/C=C/c2ccc3cc(C#N)c(=O)oc3c2)cc1
pKd [9]: 7.09 | Activity [10]: Active | Activity [11]: inactive | Activity [12]: Non-toxic | Activity [13]: inactive | Activity [14]: Active | Activity [15]: Active | pKd [16]: 7.18 | Activity [17]: inactive | Activity [18]: inactive | Activity [19]: 0.3 | Activity [20]: Active | Activity [21]: Non-toxic | Activity [22]: Not_active | Activity [23]: inactive | Activity [24]: inactive | Activity [25]: Active | Stability [26]: Stable | Activity [27]: Active | Stability [28]: Stable

CC(=O)Oc1ccccc1C(=O)Nc1ncc([N+](=O)[O-])s1
Activity [29]: Active | Activity [4]: Active | Activity [5]: Active | Activity [2]: Dose-dependent-effect
